{
  "source": "patent US20100055032A1",
  "about": "“METHODS FOR […] IMAGING USING NANOP[…] AGENTS” (NanoScan Imaging LLC, priority 2001, published 2010)",
  "key": {"atherosclerotic plaques": {"system": "atherosclerotic plaques", "experiment": "Correlation of CT/Faxitron images with histopathology (Histopathology Correlation Scale)", "type": "in vivo, New Zealand white rabbits", "parameters": "key to HCS score, renal images: 0=no correlation; 5=direct correlation", "source_text": "The primary focus of this study was to study the potential uptake by atherosclerotic plaques of the compound PH-50. The spatial resolution of the CT scanner used in these experiments was approximately 0.15 mm and determination of plaque formation and PH-50 uptake were correlated with histopathology. The timetable for the schedule of CT studies for rabbit numbers 3081 and 3086 are outlined in Table 8.\nAll sets of data were carefully harvested, analyzed and then correlated with histopathology. Images were collected, labeled as either “carotid”, “Lung”, “Spleen”, “Liver”, “Cardiac”, “Renal” or “Faxitron images of the carotids,” and then graded according to a Histopathology Correlation Scale (HCS), where 0=no correlation and 5=direct correlation."}, "[1]": {"experiment": "Particle size of the nanoparticle", "type": "physicochemical", "details": "iodinated nanoparticle, 15% (w/v)"}, "[2]": {"details": "for Percent Uptake (%) Aorta / Percent Uptake (%) Brain / Percent Uptake (%) Cardiac / Percent Uptake (%) Liver / Percent Uptake (%) Portal Vein / Percent Uptake (%) Posterior Vena Cava / Percent Uptake (%) Spleen: pre-treatment = 100.0"}, "[3]": {"details": "Rabbit No. 3081, 18 mL/90 min IV infusion (900 mg/kg), 255 min"}, "[4]": {"details": "Rabbit No. 3081, 18 mL/90 min IV infusion (900 mg/kg), 495 min"}, "[5]": {"details": "Rabbit No. 3086, 18 mL/90 min IV infusion (900 mg/kg), 250 min"}, "[6]": {"details": "Rabbit No. 3086, 18 mL/90 min IV infusion (900 mg/kg), 480 min"}},
  "note": "Where two headings read alike, the source gives them in different places.",
  "data": [
    {"smiles": "CCOC(=O)CCCCCOC(=O)c1c(I)c(NC(C)=O)c(I)c(NC(C)=O)c1I", "note": "[PH-50, 6-ethoxy-6-oxohexy-3,5-bis(acetylamino)-2,4,6-triiodobenzoate]", "values": [
      {"measurement": "uptake by atherosclerotic plaques", "setting": "atherosclerotic plaques; CT with histopathology, cholesterol-fed rabbits", "result": "taken up by atherosclerotic plaques in the heart and lung"},
      {"measurement": "HCS score, carotid images", "setting": "atherosclerotic plaques; left carotid of rabbit no. 3086", "result": 2},
      {"measurement": "HCS score, Faxitron images", "setting": "atherosclerotic plaques; mid region of the left carotid artery of rabbit no. 3086", "result": 3},
      {"measurement": "HCS score, cardiac images", "setting": "atherosclerotic plaques; plaques in the coronary arteries and myocardium of rabbit no. 3086, 4 and 8 hours post-injection", "result": 4},
      {"measurement": "HCS score, renal images", "setting": "atherosclerotic plaques; renal artery of rabbit no. 3086, area not submitted for histopathology", "result": 0},
      {"measurement": "HCS score, liver images", "setting": "atherosclerotic plaques; small arterioles of the liver of rabbit no. 3086, 4 hours post-injection", "result": 3},
      {"measurement": "HCS score, lung images", "setting": "atherosclerotic plaques; small arterioles of the lung, 4 hours post-injection", "result": 4},
      {"measurement": "HCS score, spleen images", "setting": "atherosclerotic plaques; small arterioles of the spleen of rabbit no. 3086, 4 hours post-injection", "result": 4},
      {"measurement": "mean diameter", "setting": "[1]", "result": 282, "unit": "nm"},
      {"measurement": "Hounsfield Units (HU) Aorta", "setting": "[2]; [3]", "result": 56.5, "unit": "HU"},
      {"measurement": "Hounsfield Units (HU) Brain", "setting": "[2]; [3]", "result": 49.1, "unit": "HU"},
      {"measurement": "Hounsfield Units (HU) Cardiac", "setting": "[2]; [3]", "result": 136.2, "unit": "HU"},
      {"measurement": "Hounsfield Units (HU) Liver", "setting": "[2]; [3]", "result": 169.3, "unit": "HU"},
      {"measurement": "Hounsfield Units (HU) Portal Vein", "setting": "[2]; [3]", "result": 56.4, "unit": "HU"},
      {"measurement": "Hounsfield Units (HU) Posterior Vena Cava", "setting": "[2]; [3]", "result": 95.3, "unit": "HU"},
      {"measurement": "Hounsfield Units (HU) Spleen", "setting": "[2]; [3]", "result": 449.8, "unit": "HU"},
      {"measurement": "Hounsfield Units (HU) Aorta", "setting": "[2]; [4]", "result": 89.3, "unit": "HU"},
      {"measurement": "Hounsfield Units (HU) Brain", "setting": "[2]; [4]", "result": 36.8, "unit": "HU"},
      {"measurement": "Hounsfield Units (HU) Cardiac", "setting": "[2]; [4]", "result": 138.8, "unit": "HU"},
      {"measurement": "Hounsfield Units (HU) Liver", "setting": "[2]; [4]", "result": 110.6, "unit": "HU"},
      {"measurement": "Hounsfield Units (HU) Portal Vein", "setting": "[2]; [4]", "result": 55.4, "unit": "HU"},
      {"measurement": "Hounsfield Units (HU) Posterior Vena Cava", "setting": "[2]; [4]", "result": 87.8, "unit": "HU"},
      {"measurement": "Hounsfield Units (HU) Spleen", "setting": "[2]; [4]", "result": 351.2, "unit": "HU"},
      {"measurement": "Percent Uptake (%) Aorta", "setting": "[2]; Rabbit No. 3081, 255 min", "result": 84.0, "unit": "%"},
      {"measurement": "Percent Uptake (%) Brain", "setting": "[2]; Rabbit No. 3081, 255 min", "result": 164.2, "unit": "%"},
      {"measurement": "Percent Uptake (%) Cardiac", "setting": "[2]; Rabbit No. 3081, 255 min", "result": 383.3, "unit": "%"},
      {"measurement": "Percent Uptake (%) Liver", "setting": "[2]; Rabbit No. 3081, 255 min", "result": 383.9, "unit": "%"},
      {"measurement": "Percent Uptake (%) Portal Vein", "setting": "[2]; Rabbit No. 3081, 255 min", "result": 128.5, "unit": "%"},
      {"measurement": "Percent Uptake (%) Posterior Vena Cava", "setting": "[2]; Rabbit No. 3081, 255 min", "result": 141.0, "unit": "%"},
      {"measurement": "Percent Uptake (%) Spleen", "setting": "[2]; Rabbit No. 3081, 255 min", "result": 510.6, "unit": "%"},
      {"measurement": "Percent Uptake (%) Aorta", "setting": "[2]; Rabbit No. 3081, 495 min", "result": 132.7, "unit": "%"},
      {"measurement": "Percent Uptake (%) Brain", "setting": "[2]; Rabbit No. 3081, 495 min", "result": 123.1, "unit": "%"},
      {"measurement": "Percent Uptake (%) Cardiac", "setting": "[2]; Rabbit No. 3081, 495 min", "result": 250.8, "unit": "%"},
      {"measurement": "Percent Uptake (%) Liver", "setting": "[2]; Rabbit No. 3081, 495 min", "result": 250.8, "unit": "%"},
      {"measurement": "Percent Uptake (%) Portal Vein", "setting": "[2]; Rabbit No. 3081, 495 min", "result": 126.2, "unit": "%"},
      {"measurement": "Percent Uptake (%) Posterior Vena Cava", "setting": "[2]; Rabbit No. 3081, 495 min", "result": 129.9, "unit": "%"},
      {"measurement": "Percent Uptake (%) Spleen", "setting": "[2]; Rabbit No. 3081, 495 min", "result": 398.6, "unit": "%"},
      {"measurement": "Hounsfield Units (HU) Aorta", "setting": "[2]; [5]", "result": 64.0, "unit": "HU"},
      {"measurement": "Hounsfield Units (HU) Brain", "setting": "[2]; [5]", "result": 31.3, "unit": "HU"},
      {"measurement": "Hounsfield Units (HU) Cardiac", "setting": "[2]; [5]", "result": 220.2, "unit": "HU"},
      {"measurement": "Hounsfield Units (HU) Liver", "setting": "[2]; [5]", "result": 189.4, "unit": "HU"},
      {"measurement": "Hounsfield Units (HU) Portal Vein", "setting": "[2]; [5]", "result": 54.5, "unit": "HU"},
      {"measurement": "Hounsfield Units (HU) Posterior Vena Cava", "setting": "[2]; [5]", "result": 96.5, "unit": "HU"},
      {"measurement": "Hounsfield Units (HU) Spleen", "setting": "[2]; [5]", "result": 786.6, "unit": "HU"},
      {"measurement": "Hounsfield Units (HU) Aorta", "setting": "[2]; [6]", "result": 24.1, "unit": "HU"},
      {"measurement": "Hounsfield Units (HU) Brain", "setting": "[2]; [6]", "result": 34.7, "unit": "HU"},
      {"measurement": "Hounsfield Units (HU) Cardiac", "setting": "[2]; [6]", "result": 200.3, "unit": "HU"},
      {"measurement": "Hounsfield Units (HU) Liver", "setting": "[2]; [6]", "result": 98.2, "unit": "HU"},
      {"measurement": "Hounsfield Units (HU) Portal Vein", "setting": "[2]; [6]", "result": 28.1, "unit": "HU"},
      {"measurement": "Hounsfield Units (HU) Posterior Vena Cava", "setting": "[2]; [6]", "result": 58.6, "unit": "HU"},
      {"measurement": "Hounsfield Units (HU) Spleen", "setting": "[2]; [6]", "result": 228.5, "unit": "HU"},
      {"measurement": "Percent Uptake (%) Aorta", "setting": "[2]; Rabbit No. 3086, 250 min", "result": 186.6, "unit": "%"},
      {"measurement": "Percent Uptake (%) Brain", "setting": "[2]; Rabbit No. 3086, 250 min", "result": 81.3, "unit": "%"},
      {"measurement": "Percent Uptake (%) Cardiac", "setting": "[2]; Rabbit No. 3086, 250 min", "result": 320.1, "unit": "%"},
      {"measurement": "Percent Uptake (%) Liver", "setting": "[2]; Rabbit No. 3086, 250 min", "result": 384.2, "unit": "%"},
      {"measurement": "Percent Uptake (%) Portal Vein", "setting": "[2]; Rabbit No. 3086, 250 min", "result": 122.7, "unit": "%"},
      {"measurement": "Percent Uptake (%) Posterior Vena Cava", "setting": "[2]; Rabbit No. 3086, 250 min", "result": 204.9, "unit": "%"},
      {"measurement": "Percent Uptake (%) Spleen", "setting": "[2]; Rabbit No. 3086, 250 min", "result": 792.9, "unit": "%"},
      {"measurement": "Percent Uptake (%) Aorta", "setting": "[2]; Rabbit No. 3086, 480 min", "result": 70.3, "unit": "%"},
      {"measurement": "Percent Uptake (%) Brain", "setting": "[2]; Rabbit No. 3086, 480 min", "result": 90.1, "unit": "%"},
      {"measurement": "Percent Uptake (%) Cardiac", "setting": "[2]; Rabbit No. 3086, 480 min", "result": 291.1, "unit": "%"},
      {"measurement": "Percent Uptake (%) Liver", "setting": "[2]; Rabbit No. 3086, 480 min", "result": 199.2, "unit": "%"},
      {"measurement": "Percent Uptake (%) Portal Vein", "setting": "[2]; Rabbit No. 3086, 480 min", "result": 63.3, "unit": "%"},
      {"measurement": "Percent Uptake (%) Posterior Vena Cava", "setting": "[2]; Rabbit No. 3086, 480 min", "result": 124.4, "unit": "%"},
      {"measurement": "Percent Uptake (%) Spleen", "setting": "[2]; Rabbit No. 3086, 480 min", "result": 230.3, "unit": "%"},
      {"measurement": "adverse reactions during the infusion", "setting": "[2]; anesthetized rabbits, 6 mL/kg IV over 90 min", "result": "No adverse reactions"},
      {"measurement": "blood pressure or heart rate", "setting": "[2]; anesthetized rabbits, during infusion of 6 mL/kg IV over 90 min", "result": "no increase"}
    ]}
  ]
}
